How the values were obtained:
[1] = biological target: T1, E. faecalis Fsr QS circuit (gelE promoter) (Enterococcus faecalis, UniProt A0ACD6TCR9); conditions: cited from earlier work; for EC50: read-out: EC50 [95% CI], previously published analog shown for comparison
[2] = biological target: T1, E. faecalis Fsr QS circuit (gelE promoter); assay type: cell-based, E. faecalis TX5274; conditions: EC50 ratio relative to GBAP; for Fold Change relative to GBAP, loss in potency: parentheses = loss
[3] = tested on: wild type E. faecalis cells (strain TX4002); assay: Biofilm formation phenotypic assay; assay type: cell-based; conditions: exogenous GBAP added to wild type TX4002 cells

Substance | EC50 [1] | Fold Change relative to GBAP, loss in potency [2] | agonist activity [1] | increase in the amount of biofilm formation [3] | Fold Change relative to GBAP, improvement in potency ([2]; no parentheses = improvement)
GBAP-f7 [Peptide 4] | 4.97 nM |  |  |  | 
GBAP-Des(Q1N2) lactam (SPNIFGQWM; head-to-tail lactam cyclization) [Peptide 11] | > 10000 nM | (> 10,000) fold | completely inactive |  | 
GBAP (SPNIFGQWM; not fully specified; N-terminal QN tail; lactone macrocycle) [Peptide 1, reference compound] | 1.15 nM |  |  | 30–50% | 
GBAP-G8A [Peptide 2] | > 10000 nM | (> 10,000) fold | complete loss of activity |  | 
Ac-GBAP-Des(Q1N2) (SPNIFGQWM; not fully specified; N-acetyl tail; lactone macrocycle) [Peptide 10] | 1.01 nM |  |  |  | 1.1 fold
GBAP-s3 [Peptide 12] | 45.1 nM |  |  |  | 

Reference: article PMC6150820 (ACS chemical biology, 2018)
